Measured values: US12358921B2, “Antiviral heterocyclic compounds” (priority 2022, dated 2025)

Assays:
Assay type in all cases: cell-based
[1] = system: HUMAN RSV-A (“LONG” STRAIN); assay: RSV-A assay (CPE, ATPlite) in Hep-2 cells; settings: human respiratory syncytial virus, 120 h, MOI 0.1, 5-day incubation
In short: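 Protection from RSV cytopathic effect read by ATP luminescence (ATPlite) after 5-day culture. Genotype A "Long" virus added at MOI 0.1 to Hep-2 monolayers at 8,000 cells/well, pre-dosed with duplicate 2-fold compound dilutions; controls include infected untreated and uninfected wells. EC50 values binned into ranges.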

hMPV A2 TN/94-49 [2] = assay: HMPV antiviral assay Method 2 (LLC-MK2 cells with CP-100-356, ATP-Lite); settings: hMPV A2 TN/94-49, LLC-MK2 cells, 4 μM CP-100-356, Method 2
In short: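 The protective effect was measured after 7 days at 37 °C by ATP-Lite luminescence and expressed as % cell health relative to virus-only and cells-only wells, with EC50 from a four-parameter logistic. Cells were LLC-MK2 infected with strain A2 TN/94-49 (MOI 0.16) with final 2 μM CP-100-356 and 2 μg/mL TPCK-trypsin; 10 duplicate concentrations from 200 nM, 2.5-fold steps.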

hMPV A2 TN/94-49 [3] = assay: HMPV antiviral assay Method 1 (LLC-MK2 cells, ATP-Lite); settings: hMPV A2 TN/94-49, LLC-MK2 cells
In short: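 LLC-MK2 cells infected in suspension with hMPV A2 TN/94-49 at MOI 0.005, 5,000 cells/well, in serum-free OptiMEM with 2 μg/mL TPCK-trypsin (final) and CaCl2; compounds in duplicate, 10 points, 2 μM top, 2.5-fold dilutions. After 7 days at 37 °C, cell health by ATP-Lite luminescence; EC50 by four-parameter fit.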

Row | Compound | EC50 [1] [nM] | EC50 (hMPV A2 TN/94-49 [2]) [nM] | EC50 (hMPV A2 TN/94-49 [3]) [nM]
1 | C[C@]1(C(N)=O)COc2c1cc([C@@](O)(CNC(=O)c1cc(OCCO)c3nn(C4CC4)cc3c1)C1CC1)nc2-c1ccc(F)c(Cl)c1F [Example 37] | < 200 | < 200 | > 500
2 | COc1cc(C(=O)NC[C@@](O)(c2cccc(F)c2)c2cc3c(c(-c4cc(C(F)(F)F)c(F)cc4F)n2)OC[C@]3(C)C(N)=O)cc2oc(C3CC3)nc12 [Example 297] | < 200 | < 200 | < 500
3 | Cc1nc2c(OC3CC3)cc(C(=O)NC[C@@](O)(c3ccccc3)c3cc4c(c(-c5ccc(F)c(Cl)c5Cl)n3)OC[C@]4(C)C(N)=O)cc2o1 [Example 271] | < 200 | < 200 | < 500
4 | COc1cc(C(=O)NC[C@@](O)(c2ccccc2)c2cc3c(c(-c4cc(Cl)c(F)cc4F)n2)OC[C@]3(C)C(N)=O)cc2cc(C)nnc12 [Example 89] | < 200 | < 200 | < 500
5 | COc1cc(C(=O)NC[C@@](O)(c2ccccc2)c2cc3c(c(-c4ccc(F)c(Cl)c4Cl)n2)OC[C@]3(C)C(N)=O)cc2oc(C)nc12 [Example 277] | < 200 | < 200 | < 500
6 | COc1cc(C(=O)NC[C@](O)(c2cc3c(c(-c4ccc(F)c(C)c4Cl)n2)OC[C@]3(C)C(N)=O)C2CC2)cc2cn(C3CC3)nc12 [Example 69] | < 200 | < 200 | < 500
7 | COc1cc(C(=O)NC[C@@](O)(c2ccccc2)c2cc3c(c(-c4cc(Cl)c(F)cc4F)n2)OC[C@]3(C)C(N)=O)cc2cc(C(F)F)nnc12 [Example 186] | < 200 | < 200 | > 500
8 | COc1cc(C(=O)NC[C@@](O)(c2ccccc2)c2cc3c(c(-c4ccc(F)c(Cl)c4Cl)n2)OC[C@]3(C)C(N)=O)cc2oc(C3CC3)nc12 [Example 278] | < 200 | < 200 | < 500
9 | COc1cc(C(=O)NC[C@@](O)(c2ccccc2)c2cc3c(c(-c4cc(F)c(F)cc4F)n2)OC[C@]3(C)C(N)=O)cc2cn(C3(F)CC3)nc12 [Example 170] | < 200 | < 200 | < 500
10 | Cc1cnc2c(OC(F)F)cc(C(=O)NC[C@@](O)(c3ccccc3)c3cc4c(c(-c5cc(Cl)c(F)cc5F)n3)OC[C@]4(C)C(N)=O)cc2c1 [Example 183] | < 200 | < 200 | < 500
11 | COc1cc(C(=O)NC[C@@](O)(c2ccc(F)cc2)c2cc3c(c(-c4ccc(F)c(Cl)c4Cl)n2)OC[C@]3(C)C(N)=O)cc2cn(C3CC3)nc12 [Example 41] | < 200 | < 200 | < 500
12 | COc1cc(C(=O)NC[C@@](O)(c2ccccc2)c2cc3c(c(-c4cccc(Cl)c4Cl)n2)OC[C@]3(C)C(N)=O)cc2cn(C3(F)CC3)nc12 [Example 262] | < 200 | < 200 | < 500
13 | COc1cc(C(=O)NC[C@@](O)(c2ccccc2)c2cc3c(c(-c4cccc(Cl)c4Cl)n2)OC[C@]3(C)C(N)=O)cc2cn(C3CC3)nc12 [Example 260] | < 200 | < 200 | < 500
14 | COc1cc(C(=O)NC[C@@](O)(c2cccc(F)c2)c2cc3c(c(-c4cccc(Cl)c4Cl)n2)OC[C@]3(C)C(N)=O)cc2cn(C3(F)CC3)nc12 [Example 291] | < 200 | < 200 | < 500
15 | COc1cc(C(=O)NC[C@@](O)(c2ccccc2)c2cc3c(c(-c4ccc(F)c(F)c4Cl)n2)OC[C@]3(C)C(N)=O)cc2cn(C(F)F)nc12 [Example 213] | < 200 | < 200 | < 500
16 | COc1cc(C(=O)NC[C@](O)(c2cc3c(c(-c4ccc(F)c(F)c4C)n2)OC[C@]3(C)C(N)=O)C2CC2)cc2cn(C3CC3)nc12 [Example 70] | < 200 | < 200 | < 500
17 | COc1cc(C(=O)NC[C@@](O)(c2ccc(F)cc2)c2cc3c(c(-c4ccc5c(c4Cl)OC(F)(F)O5)n2)OC[C@]3(C)C(N)=O)cc2cn(C(F)F)nc12 [Example 264] | < 200 | < 200 | < 500
18 | Cc1cnc2c(OC3CC3)cc(C(=O)NC[C@@](O)(c3ccccc3)c3cc4c(c(-c5cc(Cl)c(F)cc5F)n3)OC[C@]4(C)C(N)=O)cc2c1 [Example 182] | < 200 | < 200 | < 500
19 | COc1cc(C(=O)NC[C@@](O)(c2ccccc2)c2cc3c(c(-c4cc(Cl)ccc4F)n2)OC[C@]3(C)C(N)=O)cc2cn(C(F)F)nc12 [Example 145] | < 200 | < 200 | < 500
20 | COc1cccc([C@](O)(CNC(=O)c2cc(OC)c3nn(C4CC4)cc3c2)c2cc3c(c(-c4cc(Cl)c(F)cc4F)n2)OC[C@]3(C)C(N)=O)c1 [Example 160] | < 200 | < 200 | < 500
21 | COc1cc(C(=O)NC[C@@](O)(c2ccccc2)c2cc3c(c(-c4cc(Cl)ccc4F)n2)OC[C@]3(C)C(N)=O)cc2cc(C3CC3)nn12 [Example 146] | < 200 | < 200 | < 500
22 | COc1cc(C(=O)NC[C@@](O)(c2ccccc2)c2cc3c(c(-c4ccc(F)c(Cl)c4Cl)n2)OC[C@]3(C)C(N)=O)cc2cc(C3CC3)nnc12 [Example 290] | < 200 | < 200 | < 500
23 | COc1cc(C(=O)NC[C@@](O)(c2ccccc2)c2cc3c(c(-c4cc(C(F)F)c(F)cc4F)n2)OC[C@]3(C)C(N)=O)cc2oc(C3CC3)nc12 [Example 299] | < 200 | < 200 | < 500
24 | COc1cc(C(=O)NC[C@](O)(c2cc3c(c(-c4cc(F)c(F)cc4C)n2)OC[C@]3(C)C(N)=O)C2CC2)cc2cn(C3CC3)nc12 [Example 50] | < 200 | < 200 | > 500
25 | COc1cc(C(=O)NC[C@@](O)(c2ccc(F)cc2)c2cc3c(c(-c4ccc5c(c4Cl)OC(F)(F)O5)n2)OC[C@]3(C)C(N)=O)cc2cn(C3(F)CC3)nc12 [Example 263] | < 200 | < 200 | < 500
26 | COc1cc(C(=O)NC[C@@](O)(c2ccccc2)c2cc3c(c(-c4cc(C(F)F)c(F)cc4F)n2)OC[C@]3(C)C(N)=O)cc2cn(C3(F)CC3)nc12 [Example 298] | < 200 | < 200 | < 500
27 | COc1cc(C(=O)NC[C@@](O)(c2cccc(F)c2)c2cc3c(c(-c4ccc5c(c4Cl)OC(F)(F)O5)n2)OC[C@]3(C)C(N)=O)cc2cn(C(F)F)nc12 [Example 276] | < 200 | < 200 | < 500
28 | COc1cc(C(=O)NC[C@@](O)(c2ccccc2)c2cc3c(c(-c4cc(C(F)(F)F)ccc4F)n2)OC[C@]3(C)C(N)=O)cc2cn(C3CC3)nc12 [Example 147] | < 200 | < 200 | < 500
29 | [2H]C([2H])([2H])NC(=O)[C@@]1(C)COc2c1cc([C@@](O)(CNC(=O)c1cc(OC)c3nn(C4CC4)cc3c1)c1ccccc1)nc2-c1cc(Cl)c(F)cc1F [Example 140] | < 200 | < 200 | < 500
30 | COc1cc(C(=O)NC[C@@](O)(c2cccc(F)c2)c2cc3c(c(-c4cc(Cl)c(F)cc4F)n2)OC[C@]3(C)C(N)=O)cc2cc(C3CC3)nn12 [Example 133] | < 200 | < 200 | < 500
